Laboratory results from publication PMC11704008 (Scientific Reports, 2025).
Converted amounts (≈) assume the structure as drawn. Read-outs that look alike come from different tables or passages of the source.

Key:
[1] = assay type: physicochemical
[2] = assay type: physicochemical; remark: listed apart in the source

Structure (SMILES): C[C@](N)(Cc1ccc(O)c(O)c1)C(=O)O [methyldopa, Methyldopa]
- y × 10^5 (mole fraction in ScCO2) ([1]; 313 K, 12 MPa, CO2 density 719.2 kg.m^−3): 2.481
- y × 10^5 (mole fraction in ScCO2) ([1]; 313 K, 15 MPa, CO2 density 781.2 kg.m^−3): 3.013
- y × 10^5 (mole fraction in ScCO2) ([1]; 313 K, 18 MPa, CO2 density 820.7 kg.m^−3): 3.942
- y × 10^5 (mole fraction in ScCO2) ([1]; 313 K, 21 MPa, CO2 density 850.4 kg.m^−3): 4.531
- y × 10^5 (mole fraction in ScCO2) ([1]; 313 K, 24 MPa, CO2 density 873.9 kg.m^−3): 5.520
- y × 10^5 (mole fraction in ScCO2) ([1]; 313 K, 27 MPa, CO2 density 893.5 kg.m^−3): 6.320
- y × 10^5 (mole fraction in ScCO2) ([1]; 313 K, 30 MPa, CO2 density 910.3 kg.m^−3): 7.652
- y × 10^5 (mole fraction in ScCO2) ([1]; 323 K, 12 MPa, CO2 density 587.2 kg.m^−3): 1.880
- y × 10^5 (mole fraction in ScCO2) ([1]; 323 K, 15 MPa, CO2 density 701.1 kg.m^−3): 3.390
- y × 10^5 (mole fraction in ScCO2) ([1]; 323 K, 18 MPa, CO2 density 758.8 kg.m^−3): 4.490
- y × 10^5 (mole fraction in ScCO2) ([1]; 323 K, 21 MPa, CO2 density 797.4 kg.m^−3): 5.910
- y × 10^5 (mole fraction in ScCO2) ([1]; 323 K, 24 MPa, CO2 density 826.1 kg.m^−3): 7.114
- y × 10^5 (mole fraction in ScCO2) ([1]; 323 K, 27 MPa, CO2 density 851.7 kg.m^−3): 7.790
- y × 10^5 (mole fraction in ScCO2) ([1]; 323 K, 30 MPa, CO2 density 871.5 kg.m^−3): 8.832
- y × 10^5 (mole fraction in ScCO2) ([1]; 333 K, 12 MPa, CO2 density 435.3 kg.m^−3): 1.520
- y × 10^5 (mole fraction in ScCO2) ([1]; 333 K, 15 MPa, CO2 density 606.8 kg.m^−3): 2.841
- y × 10^5 (mole fraction in ScCO2) ([1]; 333 K, 18 MPa, CO2 density 688.4 kg.m^−3): 5.090
- y × 10^5 (mole fraction in ScCO2) ([1]; 333 K, 21 MPa, CO2 density 740.3 kg.m^−3): 7.050
- y × 10^5 (mole fraction in ScCO2) ([1]; 333 K, 24 MPa, CO2 density 777.5 kg.m^−3): 8.125
- y × 10^5 (mole fraction in ScCO2) ([1]; 333 K, 27 MPa, CO2 density 806.7 kg.m^−3): 9.163
- y × 10^5 (mole fraction in ScCO2) ([1]; 333 K, 30 MPa, CO2 density 830.5 kg.m^−3): 9.960
- y × 10^5 (mole fraction in ScCO2) ([1]; 343 K, 12 MPa, CO2 density 346.1 kg.m^−3): 0.805
- y × 10^5 (mole fraction in ScCO2) ([1]; 343 K, 15 MPa, CO2 density 507.5 kg.m^−3): 2.043
- y × 10^5 (mole fraction in ScCO2) ([1]; 343 K, 18 MPa, CO2 density 613.5 kg.m^−3): 5.410
- y × 10^5 (mole fraction in ScCO2) ([1]; 343 K, 21 MPa, CO2 density 678.9 kg.m^−3): 7.484
- y × 10^5 (mole fraction in ScCO2) ([1]; 343 K, 24 MPa, CO2 density 724.9 kg.m^−3): 8.632
- y × 10^5 (mole fraction in ScCO2) ([1]; 343 K, 27 MPa, CO2 density 760.3 kg.m^−3): 10.061
- y × 10^5 (mole fraction in ScCO2) ([1]; 343 K, 30 MPa, CO2 density 788.9 kg.m^−3): 11.345
- solubility at 5 h ([1]; solubility S in ScCO2, range over all conditions, 12–30 MPa, 313–343 K): 13.4 to 428 µg/mL (≈ 63.4 to 2030 µM)
- solvation heat (ΔHsol) ([2]; difference between ΔHvap and ΔHtotal): -5.382 kcal/mol
- total heat (∆Htotal), Chrastil model ([2]; methyldopa in ScCO2): 8.21 kcal/mol
- vaporization heat (∆Hvap), Bartle et al. model ([2]; methyldopa in ScCO2): 13.59 kcal/mol
